According to ChEMBL document CHEMBL6134931, “Lysine-Targeted Covalent Strategy Leading to the Discovery of Novel Potent PROTAC-Based PI3Kδ Degraders” (J Med Chem, 2025):

What was measured:
SU-DHL-6 [1] = assay: Induction of apoptosis in human SU-DHL-6 cells assessed as necrotic cells at 10 uM incubated for 24 hrs by Annexin V-FITC/PI staining based flow cytometric analysis (reference value: 0.39 %); assay type: functional
SU-DHL-6 [2] = assay: Induction of apoptosis in human SU-DHL-6 cells assessed as necrotic cells at 1 uM incubated for 24 hrs by Annexin V-FITC/PI staining based flow cytometric analysis (reference value: 0.39 %); assay type: functional
SU-DHL-6 [3] = assay: Induction of apoptosis in human SU-DHL-6 cells assessed as viable cells at 1 uM incubated for 24 hrs by Annexin V-FITC/PI staining based flow cytometric analysis (reference value: 92.54 %); assay type: functional; conditions: read-out: Activity
SU-DHL-6 [4] = assay: Antiproliferative activity against human SU-DHL-6 cells assessed as cell growth inhibition incubated for 72 hrs by MTT assay; assay type: functional
[5] = biological target: T1, Phosphatidylinositol 4,5-bisphosphate 3-kinase catalytic subunit delta isoform (Homo sapiens) (UniProt O00329); conditions: dose 100.0 nM, time 90.0 min
T1 sequence (whole entry): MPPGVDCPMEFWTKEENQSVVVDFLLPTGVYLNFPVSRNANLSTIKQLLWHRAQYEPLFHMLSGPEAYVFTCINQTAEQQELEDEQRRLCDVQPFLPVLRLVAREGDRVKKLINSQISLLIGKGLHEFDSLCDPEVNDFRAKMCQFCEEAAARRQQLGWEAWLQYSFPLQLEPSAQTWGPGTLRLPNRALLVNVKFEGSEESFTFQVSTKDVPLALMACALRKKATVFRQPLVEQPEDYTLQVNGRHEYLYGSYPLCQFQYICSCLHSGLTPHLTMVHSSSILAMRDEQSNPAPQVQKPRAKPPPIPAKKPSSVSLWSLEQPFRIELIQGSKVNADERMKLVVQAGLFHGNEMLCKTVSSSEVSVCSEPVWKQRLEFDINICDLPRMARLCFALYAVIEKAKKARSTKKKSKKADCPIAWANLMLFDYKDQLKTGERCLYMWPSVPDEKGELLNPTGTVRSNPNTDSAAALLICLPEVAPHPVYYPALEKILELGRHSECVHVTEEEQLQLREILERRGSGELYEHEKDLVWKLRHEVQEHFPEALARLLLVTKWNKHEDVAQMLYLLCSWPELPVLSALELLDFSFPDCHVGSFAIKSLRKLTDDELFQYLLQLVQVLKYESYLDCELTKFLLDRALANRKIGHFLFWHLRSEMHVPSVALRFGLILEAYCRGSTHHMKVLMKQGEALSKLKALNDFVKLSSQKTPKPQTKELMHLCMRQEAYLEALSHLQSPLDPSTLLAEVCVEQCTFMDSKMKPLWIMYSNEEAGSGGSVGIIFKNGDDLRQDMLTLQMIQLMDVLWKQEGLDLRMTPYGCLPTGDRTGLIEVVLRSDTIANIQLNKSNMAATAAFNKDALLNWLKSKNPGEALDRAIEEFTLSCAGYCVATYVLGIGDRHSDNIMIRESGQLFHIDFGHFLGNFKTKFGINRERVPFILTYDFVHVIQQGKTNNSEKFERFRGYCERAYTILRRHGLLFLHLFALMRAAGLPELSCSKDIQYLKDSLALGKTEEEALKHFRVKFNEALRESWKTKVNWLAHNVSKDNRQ

SU-DHL-6 [6] = assay: Induction of apoptosis in human SU-DHL-6 cells assessed as late apoptotic cells at 10 uM incubated for 24 hrs by Annexin V-FITC/PI staining based flow cytometric analysis (reference value: 4.75 %); assay type: functional
SU-DHL-6 [7] = assay: Induction of apoptosis in human SU-DHL-6 cells assessed as viable cells at 10 uM incubated for 24 hrs by Annexin V-FITC/PI staining based flow cytometric analysis (reference value: 92.54 %); assay type: functional; conditions: read-out: Activity
SU-DHL-6 [8] = assay: Antitumor activity against human SU-DHL-6 cells xenografted in male nude mouse model assessed as tumor growth inhibition at 2 mg/kg, ip administered for 21 days relative to control; assay type: functional; conditions: SU-DHL-6, 504 h, time 21 day, read-out: TGI
SU-DHL-6 [9] = assay: Induction of apoptosis in human SU-DHL-6 cells assessed as late apoptotic cells at 1 uM incubated for 24 hrs by Annexin V-FITC/PI staining based flow cytometric analysis (reference value: 4.75 %); assay type: functional
SU-DHL-6 [10] = assay: Induction of apoptosis in human SU-DHL-6 cells assessed as early apoptotic cells at 1 uM incubated for 24 hrs by Annexin V-FITC/PI staining based flow cytometric analysis (reference value: 2.32 %); assay type: functional
SU-DHL-6 [11] = assay: Induction of apoptosis in human SU-DHL-6 cells assessed as early apoptotic cells at 10 uM incubated for 24 hrs by Annexin V-FITC/PI staining based flow cytometric analysis (reference value: 2.32 %); assay type: functional
Pfeiffer = assay: Antiproliferative activity against human Pfeiffer cells assessed as cell growth inhibition incubated for 72 hrs by MTT assay; assay type: functional
[12] = biological target: von Hippel-Lindau disease tumor suppressor/Phosphatidylinositol 4,5-bisphosphate 3-kinase catalytic subunit delta isoform (Homo sapiens) (UniProt O00329+P40337); assay: PROTAC activity at VHL/p110delta in human SU-DHL-6 cells assessed as induction of p110delta degradation at 100 nM measured after 12 hrs in presence of (2S,4R)-1-((S)-2-acetamido-3,3-dimethylbutanoyl)-4-hydroxy-N-(4-(4-methylthiazol-5-yl)benzyl)pyrrolidine-2-carboxamide by Western blot analysis; assay type: cell-based
Sequence of von Hippel-Lindau disease tumor suppressor/Phosphatidylinositol 4,5-bisphosphate 3-kinase catalytic subunit delta isoform (Homo sapiens) (P40337 whole entry, looked up, one chain of several, canonical isoform): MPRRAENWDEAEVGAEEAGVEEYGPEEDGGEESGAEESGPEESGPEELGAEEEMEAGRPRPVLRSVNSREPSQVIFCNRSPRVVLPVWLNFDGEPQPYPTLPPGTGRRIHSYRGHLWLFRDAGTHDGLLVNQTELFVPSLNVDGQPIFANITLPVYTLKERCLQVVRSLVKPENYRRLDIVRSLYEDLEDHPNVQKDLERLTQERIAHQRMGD

[13] = biological target: T1, Phosphatidylinositol 4,5-bisphosphate 3-kinase catalytic subunit delta isoform (Homo sapiens); assay: Induction of p110delta degradation in human SU-DHL-6 cells at 1000 nM incubated for 24 hrs by Western blot analysis; assay type: cell-based

| GI50 (SU-DHL-6 [4]) [µM] | inhibition [5] [%] | Activity [13] [%] | Structure (SMILES) | Activity (SU-DHL-6 [1]) [%] | Activity (SU-DHL-6 [2]) [%] | viability at 1 µM (SU-DHL-6 [3]) [%] | Activity (SU-DHL-6 [6]) [%] | viability at 10 µM (SU-DHL-6 [7]) [%] | inhibition in vivo at 2 mg/kg (SU-DHL-6 [8]) [%] | Activity (SU-DHL-6 [9]) [%] | Activity (SU-DHL-6 [10]) [%] | Activity (SU-DHL-6 [11]) [%] | GI50 (Pfeiffer) [µM] | Activity [12] |
| --- | --- | --- | --- | --- | --- | --- | --- | --- | --- | --- | --- | --- | --- | --- |
| 0.25 | 81 |  | CC[C@H](Nc1ncnc2[nH]cnc12)c1nc2cccc(F)c2c(=O)n1-c1ccccc1 [IDELALISIB] | 0.13 | 0.18 | 91.7 | 11.55 | 80.1 | 36.3 | 4.89 | 3.25 | 8.2 | 8.55 |  |
|  |  | < 20 | COc1ncc(-c2ccc3ncnc(N[C@H]4CCN(C(=O)C5CCOCC5)C4)c3n2)cc1C(=O)Oc1ccccc1 |  |  |  |  |  |  |  |  |  |  | Not active; Formation Of Ternary Complex Plays A Pivotal Factor In Degradation |
